Drawing on PubChem BioAssay AID1949 (Southern Research Institute, 2009), this text covers IC50 for 50 compounds.

Structures are written as SMILES. Values after ≈ are worked out from the molar mass of the structure shown. Results filed as inconclusive are left out. Active and inactive are the calls of the source. The rule behind the calls is not given here.

The test system of the test is M. tuberculosis H37Rv growth inhibition. Briefly: Confirmatory growth inhibition assay against Mycobacterium tuberculosis H37Rv, potency (AID 1949).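 Note: bacteria grown 7 days with compound before Alamar blue readout.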

Turning to `O=C(Nc1nc2c(Cl)c(Cl)ccc2s1)c1ccco1`, the IC50 was 4.83 µg/mL (≈ 15.4 µM).

Turning to `CC(=O)Oc1cccc2ccc(/C=C/c3cccc(Br)c3)nc12`, the IC50 was < 0.1 µg/mL. For `Cn1c2c(c(=O)n(C)c1=O)C(C(F)(F)F)(C(F)(F)F)N=C(c1cccc([N+](=O)[O-])c1)N2`, the IC50 was > 50 µg/mL (inactive). Consider `COc1cccc(N2C(=O)c3cccc4cc([N+](=O)[O-])cc(c34)C2=O)c1`, for which the IC50 is 11 µg/mL (≈ 31.7 µM). As for `CC1=Nc2ccccc2N=C(N)C1c1ccc(Cl)cc1` (stereo not given), the 50% inhibitory concentration (IC50) is 15 µg/mL (≈ 52.8 µM). For `OC(COCCC12CC3CC(CC(C3)C1)C2)CN1CCc2ccccc2C1` (stereo not given), the concentration for half-maximal inhibition (IC50) is 3.49 µg/mL (≈ 9.44 µM). `Cc1ccc(OCC(O)CN2CCc3ccccc3C2)c(C(C)(C)C)c1` (stereo not given): the 50% inhibitory concentration (IC50) was 5.9 µg/mL (≈ 16.7 µM). For `Cc1ccc(S(=O)(=O)Nc2ccc(NC(=O)Nc3cccc(C(F)(F)F)c3)cc2)cc1`, the IC50 was 1.13 µg/mL (≈ 2.51 µM). Take `CCOC(=O)C1=C(c2ccc(OC)cc2)C(=O)c2ccccc2C1=O`: the 50% inhibitory concentration (IC50) is 6.6 µg/mL (≈ 19.6 µM). As to `O=C(CC(O)(C(F)(F)F)C(F)(F)F)Nc1cc(Cl)ccc1Cl`, the IC50 was 5.84 µg/mL (≈ 15.8 µM).

Take `Cc1cc(C)c(-n2c(O)c(/C=C3\C=CC=N3)c(=O)[nH]c2=O)c(C)c1`: the IC50 is 0.13 µg/mL (≈ 0.402 µM). As to `CC(=O)c1ccc2[nH]c3ccc(C(C)=O)cc3c2c1`, the half-maximal inhibitory concentration (IC50) was 0.2 µg/mL (≈ 0.796 µM).

As to `C#CCOc1c(Cl)cc(/C=C/[N+](=O)[O-])cc1OC`, the half-maximal inhibitory concentration (IC50) was 29.4 µg/mL (≈ 110 µM). As for `O=C(NC1CCCCC1)N1CCN(Cc2ccc3c(c2)OCO3)CC1`, the 50% inhibitory concentration (IC50) is 0.39 µg/mL (≈ 1.13 µM). On to `O=C(Nc1ccc(-c2nc3ccccc3c(=O)o2)cc1)c1ccccc1I`, for which the 50% inhibitory concentration (IC50) was 0.37 µg/mL (≈ 0.79 µM). With `CCC(C)c1ccccc1OCC(=O)Nc1cccc(-c2nnc(-c3ccco3)o2)c1` (stereo not given) the figure was 8.07 µg/mL (≈ 19.3 µM).

With `c1ccc(CNc2nc(N3CCN(Cc4ccccc4)CC3)nc3ccccc23)cc1`, the IC50 was 1.5 µg/mL (≈ 3.66 µM). In the case of `CCSc1nc2ccccc2n1C(=O)c1ccc(S(=O)(=O)N2CCOCC2)cc1`, the IC50 is > 50 µg/mL (inactive). Turning to `CCc1ccc(Oc2nc([N+](=O)[O-])nn2C)cc1`, the IC50 was 1.13 µg/mL (≈ 4.55 µM). With `Cc1cc(OCCn2ccnc2)cc(C(C)C)c1` the figure was 7.45 µg/mL (≈ 30.5 µM); with `O=Cc1c(Nc2ccccc2)nc2ccccn2c1=O`, 6.7 µg/mL (≈ 25.3 µM); with `Cc1cc(C)c2c(c1)c(-c1ccccc1)c(-c1ccccc1)n2CC(O)CN1CCN(CCO)CC1` (stereo not given), 3.02 µg/mL (≈ 6.24 µM). For `CCN1CCN(c2ccc(NC(=O)CC34CC5CC(CC(C5)C3)C4)cc2Cl)CC1`, the IC50 was 49.4 µg/mL (≈ 119 µM).

Regarding `COc1cc(CNCCO)cc(Cl)c1OCc1ccc(Cl)cc1Cl`, the IC50 was 5.72 µg/mL (≈ 14.6 µM). Regarding `Cn1nnnc1Sc1ccc([N+](=O)[O-])c2ncccc12`, the IC50 is > 50 µg/mL (inactive).

As to `O=C(Nc1cccc2cccnc12)c1ccc([N+](=O)[O-])o1`, the IC50 is 8.91 µg/mL (≈ 31.5 µM). Turning to `O=C1NN=C2C1=NC1(CCCCC1)Cc1ccccc12`, the concentration for half-maximal inhibition (IC50) was 0.1 µg/mL (≈ 0.374 µM).

In the case of `Cc1cc(O)ccc1Nc1nc(-c2ccccn2)cs1`, the IC50 was 1.42 µg/mL (≈ 5.01 µM). Under `Oc1c(CN2CCN(c3ccc(F)cc3)CC2)cc(Cl)c2cccnc12` stands 1.07 µg/mL (≈ 2.88 µM). Turning to `CCCCNCCCCOc1ccc2ccccc2c1Br`, the half-maximal inhibitory concentration (IC50) is 1.63 µg/mL (≈ 4.65 µM). Under `Cc1cccc(OCCn2c(NC(=O)c3ccco3)nc3ccccc32)c1` stands 2.87 µg/mL (≈ 7.94 µM); under `O=C(Oc1ccc(Cl)c2cccnc12)c1ccccc1Br`, > 50 µg/mL (inactive); under `Cc1cc(C)c(C(=O)/C=C/c2cccc([N+](=O)[O-])c2)cc1C`, 0.36 µg/mL (≈ 1.22 µM). Regarding `COc1cccc(C(=O)OCc2cccc(C(=O)Oc3ccccc3)c2)c1`, the IC50 is 9.15 µg/mL (≈ 25.2 µM). As for `COC(=O)CSc1nnc(-c2ccc(C)cc2)o1`, the IC50 was 0.15 µg/mL (≈ 0.568 µM). Consider `O=[N+]([O-])c1nn(-c2ccccc2)n(O)c1=NC1CCCC1`, for which the IC50 is 39.3 µg/mL (≈ 136 µM). As to `COc1ccc(Nc2nc(-c3ccccn3)cs2)c(OC)c1`, the half-inhibitory concentration (IC50) is < 0.1 µg/mL. With `CCOC(=O)COc1ccc(C(=O)NC2CCCCC2)cc1` the figure was 1.09 µg/mL (≈ 3.57 µM). With `Clc1cc(Cl)c2c(c1)NC(c1cccnc1)C1CC=CC21` (stereo not given), the half-maximal inhibitory concentration (IC50) is 22.1 µg/mL (≈ 69.6 µM). Turning to `CCOC(=O)COc1c(Cl)cc(/C=C(/C#N)c2nc3ccc(OC)cc3[nH]2)cc1Cl`, the concentration for half-maximal inhibition (IC50) is 0.2 µg/mL (≈ 0.448 µM). Turning to `CC(C)OC(=O)C(C)n1cnc2scc(-c3ccc(Br)cc3)c2c1=O` (stereo not given), the half-inhibitory concentration (IC50) was 8.3 µg/mL (≈ 19.7 µM). With `CCOC(=O)COc1ccc(S(=O)(=O)N2CCC(C)CC2)cc1` the figure was 1.35 µg/mL (≈ 3.95 µM); with `CC12CCC(C(=O)Oc3cccc4cccnc34)(CC1=O)C2(C)C` (stereo not given), 1.57 µg/mL (≈ 4.85 µM). `Cc1ccc(OCC(O)CN2CCN(CC(O)COc3ccc(C)cc3C)CC2)c(C)c1` (stereo not given): the IC50 was 3.27 µg/mL (≈ 7.39 µM). Regarding `CCCN(CCC)C(=S)NC(=O)c1ccc(OC)cc1`, the IC50 was 2.58 µg/mL (≈ 8.76 µM). Regarding `O=C(Nc1ccc(OC(F)(F)C(F)F)cc1)Nc1cccc(Cl)c1`, the IC50 is 0.75 µg/mL (≈ 2.07 µM). Under `COC(=O)c1sc2nc(-c3ccccc3)nc(N3CCN(C)CC3)c2c1C` stands > 50 µg/mL (inactive). In the case of `C=CCc1cc(C)ccc1OCCCCn1ccnc1`, the IC50 is 1.45 µg/mL (≈ 5.36 µM). With `COc1ccc(OCC(=O)N=Nc2c(O)[nH]c3c(Br)cc(C)cc23)c(Br)c1` the figure was 16.7 µg/mL (≈ 33.6 µM). On to `COc1cc(NC(=O)c2ccc(Br)o2)ccc1NC(=O)c1ccccc1Cl`, for which the half-maximal inhibitory concentration (IC50) was 6.8 µg/mL (≈ 15.1 µM).
